Test results as given in US20210009564A1, “CALPAIN MODULATORS AND THERAPEUTIC USES THEREOF” (BLADE THERAPERTICS, INC., priority 2018, published 2021).
Structures can show the parent of a compound that is named as a salt.

What was measured:
[1] = test system: Calpain activity in SH-SY5Y cells; experiment: SH-SY5Y Suc-LLVY-AMC fluorescence assay; type: cell-based; settings: Homo sapiens; SH-SY5Y cells, 100 uM Suc-LLVY-AMC; read-out: SH-SY5Y + AMC IC50
Human Calpain 9/NS1 = molecular target: T1, Human Calpain 9/NS1 (Homo sapiens, UniProt O14815); experiment: Calpain inhibition, continuous fluorescence (FRET substrate) assay, calpain 9; type: biochemical; settings: SensoLyte 520 FRET substrate, 25C
T1 sequence (O14815 1-690): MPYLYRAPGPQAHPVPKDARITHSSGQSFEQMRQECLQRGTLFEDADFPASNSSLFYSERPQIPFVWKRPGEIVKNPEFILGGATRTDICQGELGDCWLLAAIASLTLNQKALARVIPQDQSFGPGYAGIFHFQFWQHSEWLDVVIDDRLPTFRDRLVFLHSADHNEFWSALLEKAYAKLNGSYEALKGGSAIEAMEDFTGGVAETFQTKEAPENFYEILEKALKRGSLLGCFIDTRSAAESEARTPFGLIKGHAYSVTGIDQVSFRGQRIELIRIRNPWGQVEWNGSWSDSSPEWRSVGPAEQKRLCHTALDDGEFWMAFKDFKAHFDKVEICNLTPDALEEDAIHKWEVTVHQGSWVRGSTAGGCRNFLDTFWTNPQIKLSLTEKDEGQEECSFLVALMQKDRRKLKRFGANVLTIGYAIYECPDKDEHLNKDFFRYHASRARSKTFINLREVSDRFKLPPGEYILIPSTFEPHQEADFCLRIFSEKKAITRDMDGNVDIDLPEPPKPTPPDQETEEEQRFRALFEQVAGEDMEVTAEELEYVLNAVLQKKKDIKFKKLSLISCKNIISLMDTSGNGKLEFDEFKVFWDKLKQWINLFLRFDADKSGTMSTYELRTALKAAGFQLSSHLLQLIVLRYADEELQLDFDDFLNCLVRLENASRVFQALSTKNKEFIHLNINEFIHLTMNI
T1 sequence (P04632 1-268 partner): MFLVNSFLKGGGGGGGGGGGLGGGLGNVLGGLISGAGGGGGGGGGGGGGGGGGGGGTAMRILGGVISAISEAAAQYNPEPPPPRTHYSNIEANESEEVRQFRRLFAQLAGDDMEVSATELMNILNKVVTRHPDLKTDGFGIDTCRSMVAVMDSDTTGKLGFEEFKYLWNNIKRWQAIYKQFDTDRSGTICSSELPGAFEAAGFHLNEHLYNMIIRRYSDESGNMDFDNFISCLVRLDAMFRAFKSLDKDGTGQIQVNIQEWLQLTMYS
Protocol: (§1) Calpain 1, 2, and 9 activity and inhibition thereof was assessed by means of a continuous fluorescence assay. The SensoLyte 520 Calpain substrate (Anaspec Inc) was optimized for detecting calpain activity. This substrate contains an internally quenched 5-FAM/QXLTM 520 FRET pair. Calpains 1, 2, and 9 cleave the FRET substrate into two separate fragments resulting in an increase of 5-FAM fluorescence that is proportional to calpain activity Assays were typically setup in black 384-well plates using automated liquid handling as follows. Calpain assay base buffer typically contains 50 mM Tris, pH 7.5, 100 mM NaCl and 1 mM DTT. Inhibitors were serially diluted in DMSO and used to setup 2× mixtures with calpains in the aforementioned buffer. After incubation at ambient temperature (25C), the reaction was initiated by adding a 2× mix of the fluorescent peptide substrate and CaCl2) (required for in-situ calpain activation) in the same buffer. Reaction progress curve data were typically collected for 10 min using excitation/emission wavelengths of 490 nm/520 nm on SpectraMax i3× or the FLIPR-Tetra plate readers (Molecular Devices Inc). Reaction rates were calculated from progress curve slopes typically over 1-5 min. Dose response curves (rate vs. log inhibitor concentration) were typically fit to a 4-parameter logistic function to extract IC50 values.

[2] = test system: Calpain activity in SH-SY5Y cells; experiment: SH-SY5Y spectrin breakdown product (SBDP-150) western blot assay; type: cell-based; settings: Homo sapiens; SH-SY5Y cells, 25 uM A23187, SBDP-150 western blot; read-out: SH-SY5Y Spectrin IC50
Human Calpain 1/NS1 = molecular target: T2, Human Calpain 1/NS1 (Homo sapiens, UniProt P07384); experiment: Calpain inhibition, continuous fluorescence (FRET substrate) assay, calpain 1; type: biochemical; settings: SensoLyte 520 FRET substrate, 25C
T2 sequence (P07384 1-714): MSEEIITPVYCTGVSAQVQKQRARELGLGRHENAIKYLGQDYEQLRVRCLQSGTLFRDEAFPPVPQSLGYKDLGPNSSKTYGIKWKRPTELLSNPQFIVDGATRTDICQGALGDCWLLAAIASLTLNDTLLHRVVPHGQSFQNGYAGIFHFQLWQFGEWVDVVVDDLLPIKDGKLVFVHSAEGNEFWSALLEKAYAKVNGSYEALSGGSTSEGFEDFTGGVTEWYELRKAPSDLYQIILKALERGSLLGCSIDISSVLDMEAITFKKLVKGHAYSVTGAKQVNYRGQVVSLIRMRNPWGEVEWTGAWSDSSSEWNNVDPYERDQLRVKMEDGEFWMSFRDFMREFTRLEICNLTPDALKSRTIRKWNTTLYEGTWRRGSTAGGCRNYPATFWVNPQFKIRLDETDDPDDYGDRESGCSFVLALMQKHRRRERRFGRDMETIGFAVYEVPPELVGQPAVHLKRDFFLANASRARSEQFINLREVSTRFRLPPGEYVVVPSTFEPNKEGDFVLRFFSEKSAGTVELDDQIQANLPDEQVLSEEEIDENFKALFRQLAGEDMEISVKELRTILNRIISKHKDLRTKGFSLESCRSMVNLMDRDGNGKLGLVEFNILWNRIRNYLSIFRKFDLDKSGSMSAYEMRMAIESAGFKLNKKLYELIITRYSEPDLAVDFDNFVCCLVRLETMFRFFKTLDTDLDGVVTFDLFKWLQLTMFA
T2 sequence (P04632 1-268 partner): T1 sequence (P04632 1-268 partner)
Protocol: as §1

Human Calpain 2/NS1 = molecular target: T3, Human Calpain 2/NS1 (Homo sapiens, UniProt P17655); experiment: Calpain inhibition, continuous fluorescence (FRET substrate) assay, calpain 2; type: biochemical; settings: SensoLyte 520 FRET substrate, 25C
T3 sequence (P17655 1-700): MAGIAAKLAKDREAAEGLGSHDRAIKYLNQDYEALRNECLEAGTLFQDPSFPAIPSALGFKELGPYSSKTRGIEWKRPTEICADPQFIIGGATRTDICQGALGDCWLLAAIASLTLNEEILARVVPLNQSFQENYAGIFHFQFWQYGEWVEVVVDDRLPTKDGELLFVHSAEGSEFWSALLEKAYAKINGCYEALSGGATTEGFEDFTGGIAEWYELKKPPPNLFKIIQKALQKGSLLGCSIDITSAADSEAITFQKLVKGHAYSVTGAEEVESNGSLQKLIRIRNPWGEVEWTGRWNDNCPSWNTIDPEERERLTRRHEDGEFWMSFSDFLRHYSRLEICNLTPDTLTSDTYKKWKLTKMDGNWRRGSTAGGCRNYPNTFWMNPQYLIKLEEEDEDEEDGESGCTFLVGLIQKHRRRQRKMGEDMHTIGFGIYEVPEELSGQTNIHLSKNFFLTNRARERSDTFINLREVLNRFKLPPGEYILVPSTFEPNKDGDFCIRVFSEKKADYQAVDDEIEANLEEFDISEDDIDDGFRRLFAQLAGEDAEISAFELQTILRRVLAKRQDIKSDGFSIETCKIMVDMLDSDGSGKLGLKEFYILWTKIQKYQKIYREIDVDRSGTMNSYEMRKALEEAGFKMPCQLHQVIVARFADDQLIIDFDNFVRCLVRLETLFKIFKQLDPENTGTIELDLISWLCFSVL
T3 sequence (P04632 1-268 partner): T1 sequence (P04632 1-268 partner)
Protocol: as §1

Structure (SMILES)	IC50 [1]	IC50 (Human Calpain 9/NS1)	IC50 [2]	IC50 (Human Calpain 1/NS1)	IC50 (Human Calpain 2/NS1)
Cn1cc(C(=O)NC(Cc2ccccc2)C(=O)C(N)=O)c(-c2ccc3cccnc3c2)n1 (stereo not drawn) [Compound 1, N-(4-AMINO-3,4-DIOXO-1-PHENYLBUTAN-2-YL)-1-METHYL-3-(QUINOLIN-7-YL)-1H-PYRAZOLE-4-CARBOXAMIDE]	> 25 µM	< 3 µM	> 25 µM	< 3 µM	< 3 µM
Cn1cc(C(=O)NC(Cc2ccccc2)C(=O)C(N)=O)c(N2CCNCC2)n1 (stereo not drawn) [Compound 2, N-(4-AMINO-3,4-DIOXO-1-PHENYLBUTAN-2-YL)-1-METHYL-3-(PIPERAZIN-1-YL)-1H-PYRAZOLE-4-CARBOXAMIDE HYDROCHLORIDE]	10 to 25 µM	> 10 µM	> 25 µM	> 10 µM	3 to 10 µM
NC(=O)C(=O)C(Cc1ccccc1)NC(=O)c1nsnc1-c1ccc(F)cc1 (stereo not drawn) [Compound 3, N-(4-AMINO-3,4-DIOXO-1-PHENYLBUTAN-2-YL)-4-(4-FLUOROPHENYL)-1,2,5-THIADIAZOLE-3-CARBOXAMIDE]	< 10 µM	< 3 µM	10 to 25 µM	< 3 µM	< 3 µM
NC(=O)C(=O)C(Cc1ccccc1)NC(=O)c1cn(C(F)F)nc1-c1nccc2ccccc12 (stereo not drawn) [Compound 4, N-(4-AMINO-3,4-DIOXO-1-PHENYLBUTAN-2-YL)-1-(DIFLUOROMETHYL)-3-(ISOQUINOLIN-1-YL)-1H-PYRAZOLE-4-CARBOXAMIDE]	< 10 µM	< 3 µM	> 25 µM	< 3 µM	< 3 µM
NC(=O)C(=O)C(Cc1ccccc1)NC(=O)c1cnoc1-c1cccc2c1OCO2 (stereo not drawn) [Compound 5, N-(4-AMINO-3,4-DIOXO-1-PHENYLBUTAN-2-YL)-5-(BENZO[d][1,3]DIOXOL-4-YL)ISOXAZOLE-4-CARBOXAMIDE]	< 10 µM	< 3 µM	10 to 25 µM	< 3 µM	< 3 µM
Cn1cc(C(=O)NC(Cc2ccccc2)C(=O)C(N)=O)c(-c2cccc3ncsc23)n1 (stereo not drawn) [Compound 6, N-(4-AMINO-3,4-DIOXO-1-PHENYLBUTAN-2-YL)-3-(BENZO[D]THIAZOL-7-YL)-1-METHYL-1H-PYRAZOLE-4-CARBOXAMIDE]	< 10 µM	< 3 µM	< 10 µM	< 3 µM	< 3 µM
NC(=O)C(=O)C(Cc1ccccc1)NC(=O)c1cn(C(F)F)nc1-c1cccc2ncsc12 (stereo not drawn) [Compound 7, N-(4-AMINO-3,4-DIOXO-1-PHENYLBUTAN-2-YL)-3-(BENZO[D]THIAZOL-7-YL)-1-(DIFLUOROMETHYL)-1H-PYRAZOLE-4-CARBOXAMIDE]	< 10 µM	< 3 µM	< 10 µM	< 3 µM	< 3 µM
NC(=O)C(=O)C(Cc1ccccc1)NC(=O)c1cnoc1-c1cccc2c1OC(F)(F)O2 (stereo not drawn) [Compound 8, N-(4-AMINO-3,4-DIOXO-1-PHENYLBUTAN-2-YL)-5-(2,2-DIFLUOROBENZO[d][1,3]DIOXOL-4-YL)ISOXAZOLE-4-CARBOXAMIDE]	> 25 µM	< 3 µM	10 to 25 µM	< 3 µM	< 3 µM
Cn1cc(C(=O)NC(Cc2ccccc2)C(=O)C(N)=O)c(-n2cnc3ccccc32)n1 (stereo not drawn) [Compound 9, N-(4-AMINO-3,4-DIOXO-1-PHENYLBUTAN-2-YL)-3-(1H-BENZO[D]IMIDAZOL-1-YL)-1-METHYL-1H-PYRAZOLE-4-CARBOXAMIDE]	> 25 µM	< 3 µM	10 to 25 µM	< 3 µM	< 3 µM
Cn1cc(C(=O)NC(Cc2ccccc2)C(=O)C(N)=O)c(-c2nccc3ccccc23)n1 (stereo not drawn) [Compound 10, N-(4-AMINO-3,4-DIOXO-1-PHENYLBUTAN-2-YL)-3-(ISOQUINOLIN-1-YL)-1-METHYL-1H-PYRAZOLE-4-CARBOXAMIDE]	> 25 µM	< 3 µM	> 25 µM	3 to 10 µM	< 3 µM
Cc1cc(C(=O)NC(Cc2ccccc2)C(=O)C(N)=O)n(-c2ncc3ccccc3n2)n1 (stereo not drawn) [Compound 11, N-(4-AMINO-3,4-DIOXO-1-PHENYLBUTAN-2-YL)-3-METHYL-1-(QUINAZOLIN-2-YL)-1H-PYRAZOLE-5-CARBOXAMIDE]	< 10 µM	< 3 µM	10 to 25 µM	< 3 µM	< 3 µM
COc1cccc(-c2nn(C)cc2C(=O)NC(Cc2ccccc2)C(=O)C(N)=O)c1OC (stereo not drawn) [Compound 12, N-(4-AMINO-3,4-DIOXO-1-PHENYLBUTAN-2-YL)-3-(2,3-DIMETHOXYPHENYL)-1-METHYL-1H-PYRAZOLE-4-CARBOXAMIDE]	> 25 µM	< 3 µM	> 25 µM	3 to 10 µM	< 3 µM
Cn1cc(C(=O)NC(Cc2ccccc2)C(=O)C(N)=O)c(-c2cnc3ccccc3n2)n1 (stereo not drawn) [Compound 13, N-(4-AMINO-3,4-DIOXO-1-PHENYLBUTAN-2-YL)-1-METHYL-3-(QUINOXALIN-2-YL)-1H-PYRAZOLE-4-CARBOXAMIDE]	> 25 µM	< 3 µM	> 25 µM	< 3 µM	< 3 µM
Cn1cc2cccc(-c3nn(C(F)F)cc3C(=O)NC(Cc3ccccc3)C(=O)C(N)=O)c2n1 (stereo not drawn) [Compound 77, N-(4-AMINO-3,4-DIOXO-1-PHENYLBUTAN-2-YL)-1-(DIFLUOROMETHYL)-3-(2-METHYL-2H-INDAZOL-7-YL)-1H-PYRAZOLE-4-CARBOXAMIDE]		< 3 µM	10 to 25 µM	< 3 µM	< 3 µM
